Test results as given in patent US20250188085A1, “COMPOSITIONS AND METHODS FOR INHIBITION OF RAS” (THERAS, INC., priority 2022, published 2025).
Where two headings read alike, the source gives them in different places.

Legend:
[1] = biological target: T1, GppNHp-loaded KRAS4b (amino acids 1-169) G12C/C118S protein (Homo sapiens, UniProt P01116, C118S/G12C); test: Covalent cysteine 12 modification by MALDI-TOF MS, GppNHp-loaded KRAS G12C; assay type: binding; conditions: 15 minutes reaction time point
T1 construct: KRAS4b (amino acids 1-169) G12C/C118S protein; made in house
Procedure, shortened: (§1)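 KRAS4b 1-169 G12C/C118S loaded with GDP, GppNHp or GTP was used at 1 μM in 20 mM HEPES, 150 mM NaCl, 1 mM MgCl2, pH 7.3, and incubated with compound (5 mM DMSO stock) at room temperature in the dark. % modification at 15 min is adduct peak height over total protein peak heights by linear-mode MALDI-TOF.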

[2] = biological target: T2, GTP-loaded KRAS4b (amino acids 1-169) G12C/C118S protein (Homo sapiens, UniProt P01116, C118S/G12C); test: Covalent cysteine 12 modification by MALDI-TOF MS, GTP-loaded KRAS G12C; assay type: binding; conditions: 15 minutes reaction time point
T2 construct: KRAS4b (amino acids 1-169) G12C/C118S protein; made in house
Method: Reaction: 1 μM of GppNHp-, GTP-, or GDP-loaded KRAS4b (amino acids 1-169) G12C/C118S protein (produced in-house by Protein Expression Laboratory, FNLCR/Leidos Biomed) in 20 mM 4-(2-hydroxyethyl)-1-piperazineethanesulfonic acid (HEPES) buffer containing 150 mM NaCl, 1 mM MgCl2, pH 7.3 was prepared freshly before assay. Ten-μL aliquots of protein were dispensed onto low volume 384-well plate, then 375 nL DMSO, and 25 nL of tested compounds from 5 mM DMSO stocks were added to appropriate wells using ECHO 555 acoustic liquid handler (Labcyte Inc.). For each reaction/assay, three blanks were prepared by mixing 10 μL of protein solution with 400 nL DMSO. The contents of the wells were carefully mixed by aspiration, and then each plate was sealed with an adhesive cover, centrifuged at 2000 g for 1 minute, and kept in the dark at room temperature until 5 min, 15 min, 30 min, or 2 h collections.
Target pretreatment: Before each assay MALDI target (Bruker MPT 384 ground steel BC) was pre-treated by pipetting on each spot 0.75 μL of saturated sinapinic acid in acetonitrile (ACN).
Sample preparation: At collection time point, 2 μL of reaction mixtures were pipetted out into 20 μL MALDI matrix solution (saturated solution of sinapinic acid in 1:1 ACN:water solution containing 0.75% trifluoroacetic acid (TFA)) deposited on 384 well polypropylene plate. Resulting solution was mixed by aspiration, centrifuged at 2000 g for 1 minute, then 1 μL aliquots were dispensed on pre-treated MALDI target using Beckman Coulter Biomek FXP 96/384-Span-8 Laboratory Automation Workstation. Finally, the MALDI target was dried under mild vacuum to produce spots with fine crystalline structure.
Measurements: MALDI-TOF measurements were performed on a Bruker Daltonics rapiflex Tissuetyper TOF-TOF mass spectrometer using linear mode and mass range from 18.6 to 21.6 kDa. Detector gain was set to 3.3× (483 V), sample rate to 5 GS/s, real time smoothing to medium (175 MHz), laser smart beam pattern was set to: “MS Thin Layer M5”, and the laser frequency was 10000 Hz. Spectra were automatically collected using custom Auto Xecute method. Laser power was auto adjusted using fuzzy control. The peak selection range was set to be between 19000 and 21500 Da. Peak evaluation uses half width parameter set to be smaller than 40 Da for processed spectrograms (centroid peak detection; smoothed by SavitzkyGolay algorithm using 7 m/z width and 2 cycles; baseline was subtracted using median algorithm with flatness 1 and median level 0.01). Fuzzy control used Proteins/Oligonucleotides protocol with minimum half width 1/10 times above threshold. Up to 40000 satisfactory shots were collected in 10000 shot steps. Dynamic termination was implemented to finish data collection when peak signal/noise ratio was reaching value of 50.
Spectra processing: Spectra were smoothed by SavitzkyGolay algorithm using 7 m/z width and three cycles. Centroid peak detection algorithm was used with signal to noise threshold set to 6, relative intensity threshold 4%, peak width 10 m/z and median baseline subtraction using flatness of 1 and median level of 0.01. Peak intensity and area under the peak were evaluated and recorded for all peaks between 19,300 Da and 21,550 Da.
Calculation of percent modification: Percent modification was calculated as a ratio of peak height for protein modified by compound to sum of peak height of remaining protein plus peak height for protein modified by compound. If multiple modifications were observed each was calculated as a ratio of peak height for given modification versus sum of peak heights for all observed protein species. Data reported in Table 5 are from 15 minutes reaction time point.

[3] = biological target: T3, GDP-loaded KRAS4b (amino acids 1-169) G12C/C118S protein (Homo sapiens, UniProt P01116, C118S/G12C); test: Covalent cysteine 12 modification by MALDI-TOF MS, GDP-loaded KRAS G12C; assay type: binding; conditions: 15 minutes reaction time point
T3 construct: KRAS4b (amino acids 1-169) G12C/C118S protein; made in house
Procedure, shortened: as §1

[4] = biological target: T4, Avi-KRAS G12C (1-169) GppNHp/RAF1 RBD-3×FLAG (52-151) (Homo sapiens, UniProt P01116, G12C); test: Raf1 RBD-KRAS G12C-GppNHp disruption (protein:protein interaction HTRF assay); assay type: biochemical
T4 construct: Avi-KRAS G12C (1-169) GppNHp/RAF1 RBD-3×FLAG (52-151)
Procedure, shortened: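 HTRF measuring disruption of 50 nM Avi-KRAS G12C (1-169) loaded with GppNHp binding RAF1 RBD-3×FLAG (52-151), in pH 7.5 Tris buffer with 5 mM MgCl2, 0.1% BSA, 10% DMSO. KRAS preincubated with compound 1 h, then RBD 1 h, then detection reagents 1 h, all at room temperature. Compound titration 30-0.02 μM; activity expressed as percent of DMSO control.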

[5] = tested on: pERK in NCI-H358 cells; test: Cell-based pERK HTRF assay; conditions: 30 min incubation, read-out: pERK in NCI-H358 cell inhibition IC50
Procedure, shortened: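 Cells seeded at 4×10^4/well in RPMI with 10% FBS, then next day treated for 30 min with a 9-point, 3-fold series from 75 μM top concentration at 0.25% DMSO. Lysates were read for pERK by HTRF (d2/Eu cryptate antibodies) after 4–24 h at room temperature, emission at 615 nm.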

SMILES	GppNHp-KRAS G12C percent of modification [1]	GTP-KRAS G12C percent of modification [2]	GDP-KRAS G12C percent of modification [3]	IC50 [4] [nM]	IC50 ([5]; Homo sapiens, NCI-H358, 0.5 h) [nM]	IC50 [5] [nM]
C=CC(=O)N1CC[C@@H](Oc2nc(OC[C@@H]3CCCN3C)nc3c(F)c(-c4ccc(F)c5sc(N)c(C#N)c45)c(C(F)(F)F)cc23)[C@H]1C [Compound 101]	B (50≤percent of modification <70%)	C (10%≤modification <50%)	A (percent of modification ≥70%)	≤ 500	≤ 100	–
C=CC(=O)N1CC[C@@H](Oc2nc(OC[C@@]34CCCN3C[C@H](F)C4)nc3c(F)c(-c4ccc(F)c5sc(N)c(C#N)c45)c(Cl)cc23)[C@H]1COC [Compound 111]	D (percent of modification <10%)	D (percent of modification <10%)	C (10%≤modification <50%)	500 to 5000	≤ 100	–
C=CC(=O)N1CC[C@@H](Oc2nc(OC[C@@]34CCCN3C[C@H](F)C4)nc3c(C#N)c(-c4ccc(F)c5sc(N)c(C#N)c45)ccc23)[C@H]1C [Compound 104]	C (10%≤modification <50%)	C (10%≤modification <50%)	A (percent of modification ≥70%)	≤ 500	100 to 1000	–
C=CC(=O)N1C[C@H](Oc2nc(OC[C@@]34CCCN3C[C@H](F)C4)nc3c(F)c(-c4ccc(F)c5sc(N)c(C#N)c45)c(C(F)(F)F)cc23)C[C@@H]1COC (atropisomer, axis not shown) [Compound 86]	D (percent of modification <10%)	D (percent of modification <10%)	D (percent of modification <10%)	5000 to 20000	–	> 1000
C=CC(=O)N1CC[C@@H](Oc2nc(OC[C@@]34CCCN3C[C@H](F)C4)nc3c(F)c(-c4ccc(F)c5sc(N)c(C#N)c45)c(C(F)(F)F)cc23)[C@H]1C (single isomer, unassigned) [Compound 64]	D (percent of modification <10%)	D (percent of modification <10%)	D (percent of modification <10%)	> 20000	–	> 1000
C=CC(=O)N1C[C@@H](F)[C@@H](Oc2nc(OC[C@@]34CCCN3C[C@H](F)C4)nc3c(F)c(-c4ccc(F)c5sc(N)c(C#N)c45)c(Cl)cc23)C1 [Compound 93]	A (percent of modification ≥70%)	B (50≤percent of modification <70%)	A (percent of modification ≥70%)	≤ 500	≤ 100	–
C=CC(=O)N1C[C@@H](F)[C@@H](Oc2nc(OC[C@@]34CCCN3C[C@H](F)C4)nc3c(F)c(-c4ccc(F)c5sc(N)nc45)ccc23)C1 [Compound 82]	B (50≤percent of modification <70%)	C (10%≤modification <50%)	A (percent of modification ≥70%)	≤ 500	≤ 100	–
C=CC(=O)N1CC[C@@H](Oc2nc(N3CC(N4CC5(CC5)C4)C3)nc3c(F)c(-c4ccc(F)c5sc(N)c(C#N)c45)ncc23)C1 [Compound 87]	C (10%≤modification <50%)	D (percent of modification <10%)	A (percent of modification ≥70%)	500 to 5000	100 to 1000	–
C=CC(=O)N1CC[C@@H](Oc2nc(OC[C@@]34CCCN3C[C@H](F)C4)nc3cc(-c4ccc(F)c5sc(N)c(C#N)c45)c(F)cc23)[C@H]1COC [Compound 113]	D (percent of modification <10%)	D (percent of modification <10%)	C (10%≤modification <50%)	> 20000	> 1000	–
C=CC(=O)N1C[C@H](Oc2nc(OC[C@@]34CCCN3C[C@H](F)C4)nc3cc(-c4ccc(F)c5sc(N)nc45)c(C(F)(F)F)cc23)[C@@H](F)C1 [Compound 59]	B (50≤percent of modification <70%)	C (10%≤modification <50%)	A (percent of modification ≥70%)	≤ 500	≤ 100	–
C=CC(=O)N1C[C@H](Oc2nc(OC[C@@]34CCCN3C[C@H](F)C4)nc3c(F)c(-c4ccc(F)c5sc(N)c(C#N)c45)c(C(F)(F)F)cc23)[C@@H](F)C1 [Compound 67]	B (50≤percent of modification <70%)	B (50≤percent of modification <70%)	B (50≤percent of modification <70%)	≤ 500	≤ 100	–
C=CC(=O)N1CC[C@@H](Oc2nc(OC[C@@]34CCCN3C[C@H](F)C4)nc3c(F)c(-c4ccc(F)c5sc(N)nc45)ccc23)[C@H]1C [Compound 88]	C (10%≤modification <50%)	C (10%≤modification <50%)	C (10%≤modification <50%)	≤ 500	100 to 1000	–
